Experimental data as given in PubChem BioAssay (NCI).
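All cell lines were grown in 96-well plates and treated with compound for 48 hours. GI50 marks 50% less growth. TGI denotes the concentration required for complete inhibition of growth.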

Assays:
Experiment in all cases: NCI anticancer screen, dose series, 48 h
SF-539 CNS = system: SF-539 CNS
OVCAR-8 ovarian = system: OVCAR-8 ovarian
SNB-75 CNS = system: SNB-75 CNS
SNB-19 CNS = system: SNB-19 CNS
CAKI-1 renal = system: CAKI-1 renal
EKVX NSCLC = system: EKVX NSCLC
NCI-H460 lung = system: NCI-H460 lung
SK-MEL-2 melanoma = system: SK-MEL-2 melanoma
SR leukemia = system: SR leukemia
HL-60(TB) leukemia = system: HL-60(TB) leukemia

SMILES	TGI (SF-539 CNS) [µM]	TGI (OVCAR-8 ovarian) [µM]	TGI (SNB-75 CNS) [µM]	TGI (SNB-19 CNS) [µM]	TGI (CAKI-1 renal) [µM]	TGI (EKVX NSCLC) [µM]	TGI (NCI-H460 lung) [µM]	TGI (SK-MEL-2 melanoma) [µM]	TGI (SR leukemia) [µM]	TGI (HL-60(TB) leukemia) [µM]	GI50 (SF-539 CNS) [µM]	GI50 (OVCAR-8 ovarian) [µM]	GI50 (HL-60(TB) leukemia) [µM]	GI50 (SNB-75 CNS) [µM]	GI50 (SNB-19 CNS) [µM]	GI50 (CAKI-1 renal) [µM]	GI50 (NCI-H460 lung) [µM]	GI50 (SK-MEL-2 melanoma) [µM]	GI50 (SR leukemia) [µM]	GI50 (EKVX NSCLC) [µM]
COc1cc(C2c3cc4c(cc3OC(N3CCCC3)C2C)OCO4)cc(OC)c1OC (centres undefined)	0.732	9.82	9.4	15.4	12	> 95.5	14.5	7.56	> 17.1	–	–	–	–	–	–	–	–	–	–	–
CCCc1[nH]nc(CCC(=O)N(Cc2ccccc2)Cc2ccccc2)c1CC	> 100	> 100	> 100	> 100	> 100	> 100	> 100	> 100	–	–	–	–	–	–	–	–	–	–	–	–
C1CCSCCCCSCCCCSCCCCSC1	> 100	> 100	> 100	> 100	> 100	> 100	> 100	> 100	–	–	–	–	–	–	–	–	–	–	–	–
C=C1C(=O)O[C@H]2[C@H]1[C@H](OC(=O)/C(C)=C\C)CC(=C)[C@@H]1[C@H](O)[C@H]3O[C@@]3(C)[C@@]12O	> 100	> 100	> 100	> 100	> 100	> 100	> 100	> 100	> 100	–	–	–	–	–	–	–	–	–	–	–
NC(=S)N/N=C(/CC(=O)c1ccccc1)C(=O)Nc1ccc(Cl)c(Cl)c1	> 100	> 100	> 100	> 100	> 100	> 100	> 100	> 100	–	> 100	–	–	–	–	–	–	–	–	–	–
CCCCCn1c(=N)n(CC(O)COc2cccc(C)c2)c2ccccc21 (centres undefined)	24.7	5.04	16.5	26.4	21.2	–	17.3	18.4	5.57	4.9	11.7	2.11	2.15	2.65	12.3	6.95	4.62	5.68	2.02	–
CC(=O)NC(CCCNCc1ccccc1)C(=O)NCc1ccccc1 (centres undefined)	> 100	> 100	> 100	> 100	> 100	> 100	> 100	> 100	–	–	–	–	–	–	–	–	–	–	–	–
COc1ccc(-c2ccc(/C=N/n3c(COc4ccc(Cl)cc4Cl)n[nH]c3=S)o2)c([N+](=O)[O-])c1	49.7	> 100	–	> 100	36.9	> 100	46.3	–	–	51.2	25.7	29.7	21.5	–	28.4	17.3	18	–	–	48.9
CNS(=O)(=O)NN(C)S(=O)(=O)c1ccc(F)cc1	> 100	> 100	> 100	> 100	> 100	> 100	> 100	> 100	–	> 100	–	–	–	–	–	–	–	–	–	–
CN(C)/C=C/c1nnc([N+](=O)[O-])s1	23.4	53.3	66.6	79.3	40.5	–	33.1	39.3	–	–	–	–	–	–	–	–	–	–	–	–
O=C([O-])c1ccccc1Nc1ccccn1.O=C([O-])c1ccccc1Nc1ccccn1.[Ni+2]	> 100	> 100	–	> 100	> 100	> 100	> 100	> 100	> 100	–	72.4	> 100	–	–	> 100	> 100	> 100	> 100	> 100	31.8
COC(=O)CCC(NC(=S)N/N=C(\C)c1nccs1)C(=O)OC (centres undefined)	> 100	> 100	> 100	> 100	–	> 100	> 100	> 100	–	47.5	–	–	–	–	–	–	–	–	–	–
COC(=O)c1csnn1	> 100	> 100	–	> 100	–	> 100	> 100	–	> 100	> 100	–	–	–	–	–	–	–	–	–	–
Cc1ccc(-c2c(N)[n+]([O-])c3ccccc3[n+]2[O-])cc1	29.3	> 100	26	25.4	9.97	50.2	47	22.9	–	> 100	–	–	–	–	–	–	–	–	–	–
O=C(CC(=O)CC(O)(C(F)(F)F)C(F)(F)F)CC(O)(C(F)(F)F)C(F)(F)F	> 10	> 10	> 10	> 10	> 10	> 10	> 10	> 10	–	> 10	–	–	–	–	–	–	–	–	–	–
COc1ccc(C(=O)/C=C/c2ccc(/C=C/c3cc(OC)c(OC)c(OC)c3)cc2)cc1	78.3	61.1	47.7	> 100	> 100	–	> 100	> 100	> 100	> 100	12.2	3.76	4.49	5.5	21.1	14.6	8.65	18.9	1.98	–
Nc1c(C(=O)Nc2cccc([N+](=O)[O-])c2)sc2nc3c(cc12)C(O)CCC3 (centres undefined)	> 93.7	> 100	30.5	> 100	> 100	–	> 100	> 92.2	> 100	> 100	5.06	10.8	2.37	5.38	18.7	> 100	4.93	5.4	1.96	–
CCCCCCCCCc1cc(=O)c2ccc(OCc3ccccc3)cc2o1	> 100	> 100	72.3	> 100	13.4	> 100	> 100	> 100	–	46.4	–	–	–	–	–	–	–	–	–	–
Cc1cc(N(CCC#N)S(=O)(=O)c2ccccc2)ccc1/C=C1N=C(/C=C/c2ccccc2)OC\1=O	> 100	> 100	> 100	> 100	> 100	> 100	> 100	> 100	–	> 100	–	–	–	–	–	–	–	–	–	–

SMILES	TGI (SF-539 CNS) [µM]	TGI (OVCAR-8 ovarian) [µM]	TGI (SNB-75 CNS) [µM]	TGI (SNB-19 CNS) [µM]	TGI (CAKI-1 renal) [µM]	TGI (EKVX NSCLC) [µM]	TGI (NCI-H460 lung) [µM]	TGI (SK-MEL-2 melanoma) [µM]	TGI (SR leukemia) [µM]	TGI (HL-60(TB) leukemia) [µM]	GI50 (SF-539 CNS) [µM]	GI50 (OVCAR-8 ovarian) [µM]	GI50 (HL-60(TB) leukemia) [µM]	GI50 (SNB-75 CNS) [µM]	GI50 (SNB-19 CNS) [µM]	GI50 (CAKI-1 renal) [µM]	GI50 (NCI-H460 lung) [µM]	GI50 (SK-MEL-2 melanoma) [µM]	GI50 (SR leukemia) [µM]	GI50 (EKVX NSCLC) [µM]
CCCN=Cc1cc(Cc2ccc(O)c(C=NCCC)c2)ccc1O	9	20.4	9.67	12.2	73.8	26.4	51.9	9.59	–	5	–	–	–	–	–	–	–	–	–	–
O=C1OC(=O)C(c2c[nH]c3ccccc23)=C1c1c[nH]c2ccccc12	> 25	> 25	> 25	> 25	> 25	–	> 25	> 25	> 25	> 25	> 25	> 25	> 25	> 25	> 25	> 25	> 25	> 25	> 25	–
COc1ccccc1NC(=O)CC(=O)N1N=C(C)C(N=Nc2ccc(S(N)(=O)=O)cc2)C1=O (centres undefined)	> 100	> 100	> 100	> 100	> 100	> 100	> 100	> 100	> 100	–	–	–	–	–	–	–	–	–	–	–
CC1SC(c2c(Cl)cccc2Cl)N(NC(=O)c2[nH]c3ccc(F)cc3c2-c2ccccc2)C1=O (centres undefined)	11.9	3.39	3.27	5.82	4.85	10.8	3.9	15.6	–	> 100	3.7	1.7	67.5	1.43	2.17	1.83	2.03	3.29	–	2.33
N#CC(C(=O)/C(=N/NC(=O)c1ccccc1O)C(C#N)c1ccc(Cl)cc1)c1ccc(Cl)cc1 (centres undefined)	31.3	26.3	–	30.2	–	36.9	29.7	30.1	–	53.1	–	–	–	–	–	–	–	–	–	–
O=Cc1cn(C(=O)c2ccccc2)c2ccccc12	> 100	> 100	> 100	–	> 100	> 100	> 100	> 100	–	92.6	–	–	–	–	–	–	–	–	–	–
O=C(O)c1ccc([Se][Se]c2ccc(C(=O)O)cc2)cc1	92.1	70.8	88.3	> 100	36.7	64.3	54.9	63.2	–	–	–	–	–	–	–	–	–	–	–	–
CC(C)(C)C#CC1=C(Br)C(=O)OC1	11.1	12.7	> 100	> 100	6.95	4.71	15.1	31.7	> 100	–	2.74	2.54	–	37.7	24.7	2.38	3.72	12.6	> 100	1.69
CCN(Cc1ccc(F)c(F)c1)c1ccc(CO)c(Cl)c1	27.3	27.9	19.5	27.8	27.5	–	10.7	19.5	52.5	29.3	13.7	11.9	5.42	2.99	12.6	3.92	0.253	4.08	20.2	–
C[C@H](Nc1ncnc2nc[nH]c12)c1cc2cccc(Cl)c2c(=O)n1-c1ccccc1	> 96	> 100	55.2	> 100	> 100	–	> 100	72.6	> 100	99.5	12.5	27	3.37	0.229	17.7	13.5	12.6	19.2	24.3	–
C=CCc1c2c(c(OC)c3ccoc13)C(=O)/C(=C/c1ccccc1OC)O2	72.8	> 100	4.91	> 100	35.2	> 100	> 100	> 100	> 100	–	5.45	3.87	–	1.44	5.83	3.15	3.46	6.06	3.16	4.41
COc1ccc2c(c1)C(O)(C(F)(F)F)c1cc(C(=O)C(F)(F)F)c3ccccc3c1N2 (centres undefined)	31.3	–	36	29.5	26.8	34.1	22.3	25.2	–	43.2	–	–	–	–	–	–	–	–	–	–
N#Cc1cnc2cc(OC[C@H](O)CO)c(NC(=O)CC3CSSC3)cc2c1Nc1ccc(OCc2cccc(F)c2)c(Cl)c1	1.55	2.28	1.74	1.43	27.6	1.67	0.298	1.4	–	1.93	0.791	1.02	0.806	0.879	0.447	10.1	0.126	0.638	–	0.696
O=C1c2ccccc2-c2c1c1ccccc1c(=O)n2CCCNCCCNCCCn1c2c(c3ccccc3c1=O)C(=O)c1ccccc1-2	–	0.201	3.05	4.1	1.7	0.595	0.266	28.2	–	–	–	< 0.01	–	1.13	0.681	0.342	< 0.0169	15	–	0.25
Cc1cccc(NC(=O)CC(=O)N2N=C(N(CCC#N)c3ccc(Cl)cc3)CC2c2ccccc2)c1 (centres undefined)	> 100	> 100	> 100	> 100	> 100	–	> 100	–	> 100	> 100	–	–	–	–	–	–	–	–	–	–
ClCCn1c(CCl)nc2ccc(Cl)cc21	2.82	1.6	2.41	7.19	3.2	–	4.59	3.6	4.32	4.11	1.44	0.338	1.89	1.14	2.33	1.6	0.955	1.65	0.232	–
CC1=NCCc2c1[nH]c1cc(O)ccc21	> 100	> 100	> 100	> 100	> 100	> 100	> 100	> 100	–	> 100	–	–	–	–	–	–	–	–	–	–
CN1CCN(CCc2cccc(C(=O)c3cnn(-c4ccc(F)cc4)c3N)c2)CC1	> 25	> 25	> 25	> 25	> 25	–	> 25	> 25	> 25	> 25	> 25	> 25	> 25	> 25	> 25	> 25	> 25	> 25	> 25	–
